Where a name gives a salt, the structure may show the parent alone.
Work on `CCS(=O)(=O)Nc1cc(Cl)cc(Cc2c[nH]cn2)c1Cl` yielded a melting point of 182 to 184 °C.
`O=C(O)/C=C\C(=O)O.O=S(=O)(CC(F)(F)F)Nc1cccc(Cc2c[nH]cn2)c1` gave a melting point of 161 to 162 °C.
Compound `CCS(=O)(=O)Nc1cccc(Cc2c[nH]cn2)c1O.O=C(O)/C=C\C(=O)O` has a melting point of 155 to 157 °C.
Work on `CCS(=O)(=O)Nc1cc(Cc2c[nH]cn2)ccc1F` yielded a melting point of 122 to 123 °C.
In the case of `Cl.Cn1cnc(C2CCCc3c2ccc(O)c3NS(C)(=O)=O)c1` (stereo not shown) [Example 5, N-[2-hydroxy-5-(1-methyl-1H-imidazol-4-yl)-5,6,7,8-tetrahydro-1-naphthalenyl]methanesulfonamide Hydrochloride], the melting point is reported as 256 to 258 °C.
For `CS(=O)(=O)Nc1cccc2c1CCC[C@H]2c1c[nH]cn1` [Example 9, (+)-N-[(5R)-5-(1H-imidazol-4-yl)-5,6,7,8-tetrahydro-1-naphthalenyl]methanesulfonamide], the melting point was 118 to 123 °C.
`CCS(=O)(=O)Nc1cccc(/C(=C/OC)c2c[nH]cn2)c1.O=C(O)/C=C\C(=O)O` [Example 46, N-{3-[(Z)-1-(1H-imidazol-4-yl)-2-methoxyethenyl]phenyl}ethanesulfonamide, Maleate] gave a melting point of 146 to 148 °C.
Work on `Cc1nc(C2CCCc3c2ccc(O)c3NS(C)(=O)=O)c[nH]1.Cl` (stereo not shown) [Example 3, N-[2-hydroxy-5-(2-methyl-1H-imidazol-4-yl)-5,6,7,8-tetrahydro-1-naphthalenyl]methanesulfonamide, hydrochloride] yielded a melting point of 233 to 235 °C.
Compound `CC(c1cccc(NS(C)(=O)=O)c1)c1c[nH]cn1.Cl` (stereo not shown) has a melting point of 195 to 196 °C.
Work on `Cc1c(Cc2c[nH]cn2)cccc1NS(C)(=O)=O.O=C(O)/C=C\C(=O)O` yielded a melting point of 143 to 144 °C.
Compound `CS(=O)(=O)Nc1cccc2c1OCCC2c1c[nH]cn1.O=C(O)/C=C\C(=O)O` (stereo not shown) [Example 19, N-[4-(1H-imidazol-4-yl)-3,4-dihydro-2H-chromen-8-yl]methanesulfonamide, Maleate] has a melting point of 172 to 174 °C.
Work on `CCS(=O)(=O)Nc1cccc(Cc2c[nH]cn2)c1OC` yielded a melting point of 185 to 186 °C.
For `CC(c1cccc(NS(C)(=O)=O)c1)c1c[nH]cn1.O=C(O)/C=C\C(=O)O` (stereo not shown), the melting point was 135 to 136 °C.
In the case of `Cl.Cn1cncc1C1CCCc2c1ccc(O)c2NS(C)(=O)=O` (stereo not shown) [Example 4, N-[2-hydroxy-5-(1-methyl-1H-imidazol-5-yl)-5,6,7,8-tetrahydro-1-naphthalenyl]methanesulfonamide, Hydrochloride], the melting point is reported as 260 °C.
For `CCS(=O)(=O)Nc1cc(Br)cc(Cc2c[nH]cn2)c1C`, the melting point was 202 to 204 °C.
In the case of `CS(=O)(=O)Nc1cccc2c1CCC=C2c1c[nH]cn1.O=C(O)/C=C\C(=O)O` [Example 47, N-[5-(1H-imidazol-4-yl)-7,8-dihydro-1-naphthalenyl]methanesulfonamide, Maleate], the melting point is reported as 161 to 165 °C.
For `COc1ccc2c(c1NS(C)(=O)=O)CCCC2c1c[nH]cn1.Cl` (stereo not shown) [Example 1, N-[5-(1H-imidazol-4-yl)-2-methoxy-5,6,7,8-tetrahydro-1-naphthalenyl]methanesulfonamide hydrochloride], the melting point was 209 to 211 °C.
`CCS(=O)(=O)Nc1cc(C)cc(Cc2c[nH]cn2)c1C` showed a melting point of 167 to 169 °C.
Compound `CCS(=O)(=O)Nc1cc(Br)cc(Cc2c[nH]cn2)c1` has a melting point of 194 to 196 °C.
For `CCS(=O)(=O)Nc1c(C)ccc2c1CCCC2c1c[nH]cn1` (stereo not shown), the melting point was 196 to 199 °C.
Work on `C=C(c1cccc(NS(C)(=O)=O)c1)c1c[nH]cn1` (as salt: maleic acid salt) [Example 92, N-{3-[1-(1H-imidazol-4-yl)vinyl]phenyl}methanesulfonamide] yielded a melting point of 167 to 170 °C.
Work on `O=S(=O)(CC(F)(F)F)Nc1cccc2c1OCCC2c1c[nH]cn1` (single isomer, unassigned) (as salt: maleic acid salt) [Example 88, 2,2,2-trifluoro-N-[4-(1H-imidazol-4-yl)-3,4-dihydro-2H-chromen-8-yl]ethanesulfonamide] yielded a melting point of 173 to 176 °C.

Source: patent US20030073850A1, “4-Imidazole derivatives of benzyl and restricted benzyl sulfonamides, sulfamides, ureas, carbamates, and amides and their use” (priority 1998, published 2003)
